What all share (type): cell-based, human
In assay [1] the test system is lung cancer cells (No. B18). The experiment in a line: Effects of different factors added to basic medium BM on proliferation of primary lung cancer cells. Particulars: factor added to BM at the concentrations of Table 3; 12 days of culture; FIGS. 1A-1D. The method, then: Extracellular matrix gel (Matrigel®) (manufactured by Corning) was diluted with serum-free DMEM/F12 medium at a ratio of 1:100 to prepare an extracellular matrix diluent. The extracellular matrix diluent was added to a 48-well culture plate with 500 μl/well to completely cover the bottom of the wells of the culture plate. The culture plate was let stand for 1 hour in a 37° C. incubator. After 1 hour, the extracellular matrix diluent was removed to provide a Matrigel-coated plate.
Preparation of basic medium (abbreviated as BM): BM was prepared by adding 0.2 vol. % of Primocin (purchased from Invivogen, with a concentration of 50 mg/ml) to the commercial DMEM/F-12 medium to provide a final concentration of 100 μg/ml.
Next, different kinds and concentrations of additive factors (Table 3) were added to the basic medium (BM), so as to prepare culture mediums for lung cancer epithelial cells containing different additive components.
The culture mediums with different components were added at a volume of 500 μl/well to 48-well plates which were coated with extracellular matrix gel (Matrigel). Lung cancer cells (No. B18) isolated from lung cancer tissues according to the same method as described in Example 1 were inoculated at a cell density of 2×10^4 cells/cm^2 in the above-mentioned 48-well culture plates which were coated with Matrigel. After surface disinfection, the plates were placed in a 37° C., 5% CO2 incubator (purchased from Thermo Fisher), and the same number of freshly isolated lung cancer tumor cells (No. B18) were cultured under different medium formulations. The culture mediums were replaced every 4 days after the start of culture. After 12 days of culture, cell counts were performed. The basic medium (BM) without addition of any additive factor was used as a control. The ordinate in the figures represents the ratio of the number of cells obtained after culture in different mediums to the number of cells obtained after culture in basic medium BM.

Assay [2] concerns lung cancer epithelial cells (Sample No. B26). The experiment in a line: Effects of different concentrations of the additive factors on proliferation of primary lung cancer cells. Particulars: added to No. 8 medium lacking the factor; cell number ratio to Blank Control; FIGS. 3A-3H. On the procedure: Extracellular matrix gel (Matrigel®) was diluted with serum-free DMEM/F12 medium at a ratio of 1:100 to prepare an extracellular matrix diluent. The extracellular matrix diluent was added to a 48-well culture plate with 200 μl/well to completely cover the bottom of the wells of the culture plate. The culture plate was let stand for 1 hour in a 37° C. incubator. After 1 hour, the extracellular matrix diluent was removed to provide a Matrigel-coated plate.
No. 8 culture medium for primary lung cancer epithelial cells was prepared.
Lung cancer epithelial cells derived from cancer tissues were isolated from the cancer tissue of a lung cancer patient (Sample No. B26) using the same method as in Example 1. Next, lung cancer epithelial cells derived from cancer tissues were counted with a flow imaging counter (JIMBIO FIL, Jiangsu Jimbio Technology Co., Ltd.) to get the total number of cells. Then, the cells were inoculated at a density of 4×10^4 cells/cm^2 in a 48-well plate which was coated with Matrigel®. […] of the prepared No. 8 culture medium for primary lung cancer epithelial cells was added to the 48-well plate, which was then placed in a 37° C., 5% CO2 incubator (purchased from Thermo Fisher) for culture. When the cells in the culture plate grew to cover about 80% of the bottom area, the supernatant of medium in the 48-well plate was discarded and 500 μl of 0.05% trypsin (purchased from Gibco) was added for cell digestion, which was then incubated at 37° C. for 10 minutes, until the cells were completely digested as observed under a microscope (EVOS M500, Invitrogen); then the digestion was terminated by using 1 ml of DMEM/F12 culture solution containing 5% (v/v) fetal bovine serum (purchased from ExCell Bio), 100 U/ml penicillin (purchased from Corning), and […] streptomycin (purchased from Corning); the resultant was collected into a 15 ml centrifuge tube and centrifuged at 1500 rpm for 4 minutes, and then the supernatant was discarded. The centrifuged cell pellet was resuspended in the basic medium BM and the cells were counted with a flow imaging counter (JIMBIO FIL, Jiangsu Jimbio Technology Co., Ltd.) to get the total number of cells. The obtained cells were used in the following cultivation experiments.
Next, the following 8 formulations of culture medium were prepared for experiments: • Formulation 1: No. 8 culture medium composition without B27 additive; • Formulation 2: No. 8 culture medium composition without fibroblast growth factor; • Formulation 3: No. 8 culture medium composition without transferrin; • Formulation 4: No. 8 culture medium composition without epidermal growth factor; • Formulation 5: No. 8 culture medium composition without Y27632; • Formulation 6: No. 8 culture medium composition without Compound 1; • Formulation 7: No. 8 culture medium composition without A83-01; • Formulation 8: No. 8 culture medium composition without gastrin.
The digested cell suspension was diluted with the above Formulations 1-8 respectively, and then inoculated into a 48-well plate at a volume of 250 μl with 10,000 cells per well.
When using the medium of Formulation 1, to a 48-well plate inoculated with primary cells was added the prepared B27 additive, with 250 μl per well, the final concentrations of B27 additive were 1:800, 1:400, 1:200, 1:100, 1:50, 1:25, respectively; a well of Blank Control (BC) was set using the medium of Formulation 1.
When using the medium of Formulation 2, to a 48-well plate inoculated with primary cells was added the prepared fibroblast growth factor, with 250 μl per well, the final concentrations of fibroblast growth factor were 80 ng/ml, 40 ng/ml, 20 ng/ml, 10 ng/ml, 5 ng/ml, 2.5 ng/ml, respectively; a well of Blank Control (BC) was set using the medium of Formulation 2. […]

Assay [3] has as its system Hippo pathway related proteins YAP and TAZ in the nucleus. The assay can be described thus: Immunoblotting of Hippo pathway related proteins YAP and TAZ in the nucleus. Particulars: B16 cells, FLM with Compound 1 versus FLM without Compound 1, 12 days; FIG. 10. On the procedure: Freshly isolated primary lung cancer epithelial cell sample (No. B16) was obtained according to the steps described in Example 1. Then, the primary epithelial cells were inoculated onto a 6-well plate coated with Matrigel™. 3 mL of the culture medium FLM and 3 mL of the culture medium FLM without Compound 1 were respectively added to the wells inoculated with the aforementioned epithelial cells. The plate was placed in a 37° C., 5% CO2 incubator (purchased from Thermo Fisher) for culture. The culture mediums were changed every 4 days during the culture process. After 12 days of cultivation, cells of each group were collected and the […] of Compound 1 on Hippo pathway related proteins YAP and TAZ in the nucleus was detected using conventional immunoblotting method. Yes associated protein (YAP) and its homologous transcriptional co-activator PDZ-binding motif (TAZ) are key effectors in the Hippo pathway that control cell growth and organ size, and their dysregulation may lead to tumor development or hypertrophy. After activation, YAP/TAZ translocate to the nucleus and bind to TEAD transcription factors, promoting cell proliferation or regulated transcription process.
Background: Immunoblotting shows a protein as a band on a membrane.

Ends that are not written are not given here.

As for `CN1C(=O)C(c2c(F)cccc2F)N(C)c2nc(Nc3ccc(S(N)(=O)=O)cc3)ncc21` (stereo not shown) [Compound 1, 4-((7-(2,6-Difluorophenyl)-5,8-dimethyl-6-oxo-5,6,7,8-tetrahydropteridin-2-yl)amino)benzsulfamide], the “effect on cell proliferation (ratio of number of cells to that in basic medium BM)” value in assay [1] is listed as “certain promoting effects on cell proliferation in specific concentration ranges”. Further, the “amount in the culture medium, most preferably” value (“amount in the culture medium” below) in assay [2] amounted to 5 µM. For the same compound, in assay [3], the “expression of YAP and TAZ proteins in the nucleus” value is reported as “significant increase”.
Consider `Cc1cccc(-c2nn(C(=S)Nc3ccccc3)cc2-c2ccnc3ccccc23)n1` [Compound A83-01, reference compound], for which the “effect on cell proliferation (ratio of number of cells to that in basic medium BM)” value in assay [1] is on record as “certain promoting effects on cell proliferation in specific concentration ranges”. The “amount in the culture medium” value in assay [2] worked out at 0.5 µM.
For `C[C@@H](N)[C@H]1CC[C@H](C(=O)Nc2ccncc2)CC1` [Compound Y27632, reference compound] the same measures were “certain promoting effects on cell proliferation in specific concentration ranges” and 10 µM.
Regarding fibroblast growth factor, the “effect on cell proliferation (ratio of number of cells to that in basic medium BM)” value in assay [1] is given as “certain promoting effects on cell proliferation in specific concentration ranges”. Moreover, the “amount in the culture medium” value in assay [2] turned out to be 10 ng/mL.
As for “gastrin: additive factor from Sino Biological Inc. (QGPWLEEEEEAYGWMDF; ends and bridges not checked; UniProt P01350 76-92, looked up)”, in assay [1], the “effect on cell proliferation (ratio of number of cells to that in basic medium BM)” value is listed as “certain promoting effects on cell proliferation in specific concentration ranges”. Also, the “amount in the culture medium” value in assay [2] is 10 ng/mL.
Turning to “transferrin: additive factor from Sino Biological Inc.”, in assay [1], the “effect on cell proliferation (ratio of number of cells to that in basic medium BM)” value is “certain promoting effects on cell proliferation in specific concentration ranges”. Besides, the “amount in the culture medium” value in assay [2] was 20 ng/mL.
